Assay results taken from patent US20260049105A1, “SELECTIVE MC4R LIGAND FOR TREATING OBESITY AND COGNITIVE LOSS” (ARIZONA BOARD OF REGENTS ON BEHALF OF THE UNIVERSITY OF …, priority 2022, published 2026).

Columns and labels:
[1] = molecular target: T1, hMC3R (Homo sapiens, UniProt P41968); experiment: Competitive receptor binding assay, whole HEK293 cells, 125I-NDP-α-MSH; conditions: 40 min; hM3CR; percentage of NDP-α-MSH displacement at 10 μM; read-out: BE %
T1 construct: expressed in transfected cells; host or cells: HEK293
Procedure: [The procedure below names another target; the source lists this target under the same test.] (§1) Competition binding experiments were performed on whole cells. The transfected HEK293 cell line with hMC4Rs were seeded on 96 well plates, 48 hours before the assay, 100,000 cells/well. For the assay, the medium was removed and cells were washed twice with a freshly prepared binding buffer containing 100% minimum essential medium with Earle's salt (MEM, GIBCO), 25 mM HEPES (pH 7.4), 0.2% bovine serum albumin, 1 mM 1,10-phenanthroline, 0.5 mg/L leupeptin, and 200 mg/L bacitracin. […] The medium was subsequently removed and each well was washed twice with the assay buffer. The cells are lysed by the addition of 250 μL of 0.1 NaOH and 250 μL of 1% Triton X-100. The lysed cell was transferred to the 12×75 mm glass tubes and the radioactivity was measured by Wallac 1470 WIZARD Gamma Counter. Data were analyzed using Graphpad Prism 6.0 (Graphpad Software, San Diego, CA).
(§2) IC50 and EC50 values represent the mean of duplicate experiments performed in triplicate. IC50 and EC50 estimates and their associated standard errors were determined by fitting the data using nonlinear least-squares analysis, with the help of Graphpad Prism 6.0 (Graphpad Software, San Diego, CA).
(§3) NA indicates 0% cAMP accumulation observed at 10 μM. The peptides were tested over a range of concentrations from 10^-10 to 10^-5 M.

[2] = molecular target: T2, hMC1R (Homo sapiens, UniProt Q01726); experiment: as above; conditions: for inhibition at 10 µM: 40 min, hM1CR, percentage of NDP-α-MSH displacement at 10 μM, read-out: BE %; for hMC1R binding affinity (in words): compared with the other analogues
T2 construct: expressed in transfected cells; host or cells: HEK293
Procedure: [The procedure below names another target; the source lists this target under the same test.] as §1, §2, §3

[3] = molecular target: T1, hMC3R; experiment: Adenylate cyclase (cAMP) assay in transfected HEK293 cells; assay type: cell-based; conditions: HEK293, 0.05 h; hM3CR; cAMP at 10 μM in relation to MT-II; read-out: Act %
Procedure: (§4) HEK293 cells transfected with human melanocortin receptors were grown to confluence in MEM medium (GIBCO) containing 10% fetal bovine serum, 100 units/mL penicillin and streptomycin, and 1 mM sodium pyruvate. The cells were seeded on 96 well plates 48 hours before the assay, (100,000 cells/well). For the assay, the medium was removed and cells were rinsed with 1 mL of MEM buffer (GIBCO) or with Earle's balanced salt solution (EBSS, GIBCO). An aliquot (0.4 mL) of Earle's balanced salt solution was placed in each well along with isobutylmethylxanthine (IBMX; 5 μL; 0.5 mM) for 1 minute at 37° C. Varying concentrations of melanotropins (0.1 mL) were added and the cells incubated for 3 minutes at 37° C. The reaction was stopped by aspirating the buffer and adding ice-cold Tris/EDTA buffer to each well (0.15 mL). The 96 well plates were covered and placed on ice. After dislodging the cells, the plates were placed in a boiling water bath for 15 minutes. The cell lysate was then centrifuged for 10 minutes (4000 rpm), and 50 μL of the supernatant was aliquoted into perkinElmer glass fiber filter plate. cAMP content was measured by competitive binding assay in addition to 50 μL H^3 cAMP and 100 μL PKA. Then the system was placed on ice for 2 hours and then vacuum and filtered. 100 μL of the OptiPhase Supermix scintillation fluid was added to the plate. The plates stayed for 8 hours and then read by MicroBeta radiation plate reader.
as §2, §3

[4] = molecular target: T2, hMC1R; experiment: as above; assay type: cell-based; conditions: HEK293, 0.05 h; hM1CR; cAMP at 10 μM in relation to MT-II; read-out: Act %
Procedure: as §4, §2, §3

[5] = molecular target: T3, hMC5R (Homo sapiens, UniProt P33032); experiment: as above; assay type: cell-based; conditions: HEK293, 0.05 h; hM5CR; cAMP at 10 μM in relation to MT-II; read-out: Act %
T3 construct: expressed in transfected cells; host or cells: HEK293
Procedure: as §4, §2, §3

[6] = molecular target: T4, hMC4R (Homo sapiens, UniProt P32245); experiment: as above; assay type: cell-based; conditions: for Emax at 10 µM: HEK293, 0.05 h, hM4CR, percentage of cAMP produced at 10 μM in relation to MT-II, read-out: Act%
T4 construct: expressed in transfected cells; host or cells: HEK293
Procedure: as §4, with “The” for “HEK293 cells transfected with human melanocortin receptors were grown to confluence in MEM medium (GIBCO) containing 10% fetal bovine serum, 100 units/mL penicillin and streptomycin, and 1 mM sodium pyruvate. The”, “reader. IC50 and EC50 values represent the mean of duplicate experiments performed in triplicate. […] NA indicates 0% cAMP accumulation observed at 10 μM. The peptides were tested over a range of concentrations from 10^-10 to 10^-5 M.” for “reader.”

[7] = molecular target: T4, hMC4R; experiment: Competitive receptor binding assay, whole HEK293 cells, 125I-NDP-α-MSH; conditions: for inhibition at 10 µM: 40 min, hM4CR, percentage of [125I]NDP-α-MSH displacement at 10 μM, read-out: BE%
Procedure: as §1, with “The lysed cell was transferred to the 12×75 mm glass tubes and the radioactivity was measured by Wallac 1470 WIZARD Gamma Counter.” left out
as §2, with “CA). […]” for “CA).”

[8] = molecular target: T3, hMC5R; experiment: as above; conditions: 40 min; hM5CR; percentage of NDP-α-MSH displacement at 10 μM; read-out: BE %
Procedure: [The procedure below names another target; the source lists this target under the same test.] as §1, with “The lysed cell was transferred to the 12×75 mm glass tubes and the radioactivity was measured by Wallac 1470 WIZARD Gamma Counter.” left out
as §2, §3

[9] = molecular target: T4, hMC4R; experiment: Plasmon waveguide resonance (PWR) spectrum of hMC4R membranes with agonists
Excerpt: PWR uses polarized light generated from a CW He—Ne laser (λ=632.8 nm or λ=543.5 nm), which passes through a glass prism under total internal reflection conditions. A thin metal film (Ag), which is deposited on the external surface of the prism, is overcoated with another thin layer of SiO2 as dielectric media. When there is an object attached to the dielectric layer of SiO2, and polarized laser forms a specific incident angle with the outer surface layer, the resonant excitation of collective electronic oscillations (plasmons) happens and generates an evanescent electromagnetic field localized at the dielectric film, which gives the absorption spectrum at that specific angle. This can be used to probe the optical properties of molecules immobilized on the outer surface of the prism. Resonance is achieved either by varying the laser light wavelength at a fixed angle or by varying the angle at a fixed laser wavelength(we used the latter one in this research). Any changes of the immobilized yield distinct incident angle that evanescence happens in the dielectric layer. Due to the ability that laser light can be polarized to either parallel (p) or perpendicular (s) to the incident plane, characterization of the molecular organization of anisotropic systems can be fulfilled, such as biomembranes containing integral proteins. Under the experimental conditions described herein, the optical parameters obtained with the p-polarization refer to the perpendicular direction, and those obtained with s-polarization refer to the parallel direction, relative to the bilayer membrane surface.
Resonance spectra in this study were obtained using a PWR instrument from Biopeptek Pharmaceuticals LLC. […] Recombinant HEK293 cells expressing the hMC4R were grown to confluency. The confluent cell monolayers were then washed with Ca^2+ and Mg^2+-deficient phosphate-buffered saline and were harvested in the same buffer containing 0.02% ethylenediaminetetraacetic acid (EDTA). After centrifugation at 1500 g for 10 minutes, the cells were homogenized in an ice-cold 10 mM Tris-HCl buffer and 1 mM EDTA (pH 7.4). A crude membrane fraction was collected by centrifugation at 40,000 g for 20 minutes at −4° C. and was stored at −80° C. until use. Before the PWR experiment, the membrane fraction was resuspended in a 20 mM Tris-HCl buffer (pH 7.4) by mild homogenization. Protein concentration was determined by using a Bradford assay.
Under the experimental conditions employed herein, the oscillation of light with p-polarization reflects the dimension of objects perpendicular to the membrane, and those obtained under the s-polarization vector refer to the dimension in parallel with the bilayer membrane surface.

T2 sequence (Q01726 whole entry): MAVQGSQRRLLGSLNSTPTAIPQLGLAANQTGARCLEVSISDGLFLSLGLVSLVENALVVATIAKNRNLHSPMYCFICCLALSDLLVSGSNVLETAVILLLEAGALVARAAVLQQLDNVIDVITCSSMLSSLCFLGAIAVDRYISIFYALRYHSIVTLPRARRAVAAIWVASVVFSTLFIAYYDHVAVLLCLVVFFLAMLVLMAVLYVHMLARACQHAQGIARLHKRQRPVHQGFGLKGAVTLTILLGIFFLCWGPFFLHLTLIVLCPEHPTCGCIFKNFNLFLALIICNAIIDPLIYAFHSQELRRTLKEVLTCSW
T4 sequence (P32245 whole entry): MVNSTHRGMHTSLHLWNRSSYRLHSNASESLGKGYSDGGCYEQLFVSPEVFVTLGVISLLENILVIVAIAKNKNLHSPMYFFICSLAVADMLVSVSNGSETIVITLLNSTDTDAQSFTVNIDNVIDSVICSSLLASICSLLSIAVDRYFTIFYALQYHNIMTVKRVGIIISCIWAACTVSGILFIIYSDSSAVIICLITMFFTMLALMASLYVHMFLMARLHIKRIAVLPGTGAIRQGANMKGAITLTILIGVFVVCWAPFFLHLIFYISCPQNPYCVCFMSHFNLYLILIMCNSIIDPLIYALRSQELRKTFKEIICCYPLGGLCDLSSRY
T1 sequence (P41968 whole entry): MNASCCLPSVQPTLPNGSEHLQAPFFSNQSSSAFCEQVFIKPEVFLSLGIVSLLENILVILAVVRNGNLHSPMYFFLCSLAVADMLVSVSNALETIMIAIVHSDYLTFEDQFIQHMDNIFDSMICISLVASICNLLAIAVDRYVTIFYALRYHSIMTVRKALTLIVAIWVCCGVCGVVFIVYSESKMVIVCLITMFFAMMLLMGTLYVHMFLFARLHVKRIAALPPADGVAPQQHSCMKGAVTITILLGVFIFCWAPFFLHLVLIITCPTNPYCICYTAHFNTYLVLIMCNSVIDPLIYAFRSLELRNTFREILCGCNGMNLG
T3 sequence (P33032 whole entry): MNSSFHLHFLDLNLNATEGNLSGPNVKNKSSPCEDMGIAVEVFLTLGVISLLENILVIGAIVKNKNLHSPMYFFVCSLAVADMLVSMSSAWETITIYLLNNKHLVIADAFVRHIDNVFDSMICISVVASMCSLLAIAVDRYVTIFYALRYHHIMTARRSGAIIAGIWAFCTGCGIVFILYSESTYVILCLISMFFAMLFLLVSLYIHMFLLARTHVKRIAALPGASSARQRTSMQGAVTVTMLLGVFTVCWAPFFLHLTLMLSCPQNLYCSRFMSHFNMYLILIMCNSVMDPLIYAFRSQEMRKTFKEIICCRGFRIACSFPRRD

| SMILES | inhibition at 10 µM [1] | inhibition at 10 µM [2] | Emax at 10 µM [3] | Emax at 10 µM [4] | Emax at 10 µM [5] | Emax at 10 µM [6] | inhibition at 10 µM [7] | inhibition at 10 µM [8] | hMC1R binding affinity (in words) [2] | selectivity for hMC4R (in words) ([6]; comparing the EC50 of a compound for each receptor) | times higher in binding affinity to hMC4R than hMC1R ([7]; hMC4R vs hMC1R) | times higher in binding affinity to hMC4R than hMC3R ([7]; hMC4R vs hMC3R) | times higher in binding affinity to hMC4R than hMC5R ([7]; hMC4R vs hMC5R) | PWR peak location under p-polarization ([9]; p-polarization, hMC4R sole 26.44) | PWR shift under s-polarization (in words) ([9]; s-polarization) | PWR left shift under p-polarization relative to hMC4R sole ([9]; p-polarization, left shifted) | PWR absorbance location under s-polarization ([9]; s-polarization, sole MC4R 33.29) |
| --- | --- | --- | --- | --- | --- | --- | --- | --- | --- | --- | --- | --- | --- | --- | --- | --- | --- |
| CC(=O)N[C@@H](CCCNC(=N)N)C(=O)N[C@H]1CC(=O)NCCCC[C@@H](C(N)=O)NC(=O)C[C@H](Cc2c[nH]c3ccccc23)NC(=O)[C@H](CCCNC(=N)N)NC(=O)[C@@H](Cc2ccc(F)cc2)NC(=O)[C@@H]2CCCCN2C1=O [compound 4, Ac-Arg-cyclo[Asp-Pip-D-Phe(4-F)-Arg-BTrp-Lys]-NH2] | 100% | 100% | 76% | 90% | 72% | 46% | 9% | 100% | – | – | – | – | – | – | – | – | – |
| CC(=O)N[C@@H](CCCNC(=N)N)C(=O)N[C@H]1CC(=O)NCCCC[C@@H](C(N)=O)NC(=O)C[C@H](Cc2c[nH]c3ccccc23)NC(=O)C[C@H](CCCNC(=N)N)NC(=O)[C@@H](Cc2ccc(F)cc2)NC(=O)[C@@H]2CCCCN2C1=O [compound 6, Ac-Arg-cyclo[Asp-Pip-D-Phe(4-F)-βArg-BTrp-Lys]-NH2] | 39% | 0% | 49% | 61% | 51% | 120% | 59% | 90% | lower binding affinities than the others | – | – | – | – | – | – | – | – |
| CC(=O)N[C@@H](CCCNC(=N)N)C(=O)N[C@H]1CC(=O)NCCCC[C@@H](C(N)=O)NC(=O)[C@H](Cc2c[nH]c3ccccc23)NC(=O)C[C@H](CCCNC(=N)N)NC(=O)[C@@H](Cc2ccccc2)NC(=O)[C@@H]2CCCCN2C1=O [compound 2, Ac-Arg-cyclo[Asp-Pip-D-Phe-βArg-Trp-Lys]-NH2] | 24% | 100% | 89% | 120% | 90% | 67% | 100% | 0% | – | – | – | – | – | – | – | – | – |
| CC(=O)N[C@@H](CCCNC(=N)N)C(=O)N[C@H]1CC(=O)NCCCC[C@@H](C(N)=O)NC(=O)[C@H](Cc2c[nH]c3ccccc23)NC(=O)C[C@H](CCCNC(=N)N)NC(=O)[C@@H](Cc2ccc(Cl)cc2)NC(=O)[C@@H]2CCCCN2C1=O [compound 8, Ac-Arg-cyclo[Asp-Pip-D-Phe(4-Cl)-βArg-Trp-Lys]-NH2] | 100% | 100% | 46% | 89% | 38% | 66% | 100% | 0% | – | – | – | – | – | – | – | – | – |
| CC(=O)N[C@@H](CCCNC(=N)N)C(=O)N[C@H]1CC(=O)NCCCC[C@@H](C(N)=O)NC(=O)C[C@H](Cc2c[nH]c3ccccc23)NC(=O)[C@H](CCCNC(=N)N)NC(=O)[C@@H](Cc2ccc(Cl)cc2)NC(=O)[C@@H]2CCCCN2C1=O [compound 7, Ac-Arg-cyclo[Asp-Pip-D-Phe(4-Cl)-Arg-BTrp-Lys]-NH2] | 70% | 100% | 24% | 67% | 21% | 57% | 100% | 0% | – | – | – | – | – | – | – | – | – |
| CC(=O)N[C@@H](CCCNC(=N)N)C(=O)N[C@H]1CC(=O)NCCCC[C@@H](C(N)=O)NC(=O)C[C@H](Cc2c[nH]c3ccccc23)NC(=O)C[C@H](CCCNC(=N)N)NC(=O)[C@@H](Cc2ccc(Cl)cc2)NC(=O)[C@@H]2CCCCN2C1=O [compound 9, Ac-Arg-cyclo[Asp-Pip-D-Phe(4-Cl)-βArg-BTrp-Lys]-NH2] | 10% | 100% | 63% | 90% | 76% | 87% | 100% | 75% | lower binding affinities than the others | selective agonist of hMC4R | about 68 times | over 1000 times | over 1000 times | 26.95 | no significant change | – | – |
| CC(=O)N[C@@H](CCCNC(=N)N)C(=O)N[C@H]1CSSC[C@@H](C(N)=O)NC(=O)[C@H](Cc2c[nH]c3ccccc23)NC(=O)[C@H](CCCNC(=N)N)NC(=O)[C@@H](Cc2ccccc2)NC(=O)[C@H](Cc2c[nH]cn2)NC(=O)[C@@H](C)NC1=O [RM493, reference compound] | – | – | – | – | – | – | – | – | – | – | – | – | – | – | – | 0.25 degrees | 32.97 |
| CC(=O)N[C@@H](CCCNC(=N)N)C(=O)N[C@H]1CC(=O)NCCCC[C@@H](C(N)=O)NC(=O)C[C@H](Cc2c[nH]c3ccccc23)NC(=O)C[C@H](CCCNC(=N)N)NC(=O)[C@@H](Cc2ccccc2)NC(=O)[C@@H]2CCCCN2C1=O [compound 3, Ac-Arg-cyclo[Asp-Pip-D-Phe-βArg-BTrp-Lys]-NH2] | 100% | 30% | 87% | 82% | 82% | 84% | 100% | 46% | lower binding affinities than the others | – | – | – | – | – | – | – | – |
